Assays:
p70-S6K = p70-S6K (Thr389) phosphorylation by Western blot in mHypoE-46; format: cell-based, mouse; conditions: 100 μM BAP for 5, 15, 30, 60 and 90 minutes, serum-starved mHypoE-46
Description: mHypoE-46 cells were serum starved in 5.5 mM glucose (LG) DMEM for 1 hour prior to treatment with vehicle (0.1% DMSO), 100 µM BAP or H20, […] 5-Aminoimidazole-4-carboxamide ribonucleotide (AICAR) or 0 mM glucose DMEM. Protein was harvested using 1× cell lysis buffer (Cell Signaling Technologies, Inc, CST) containing protease and phosphatase inhibitors. A total of 30 μg protein was separated on a 12% SDS-polyacrylamide gels and transferred onto PVDF membranes. Membranes were blocked in 5% milk dissolved in Tris-buffered saline with Tween 20 (TBS-T) for 1 h and incubated with primary antibody overnight at 4° C. phospho-AMPKα (Thr172; cat. 2532S, CST), and total AMPKα (cat. 2535S, CST); phospho-p70-S6K (Thr389; cat. 9205S, CST) and total p70-S6K (cat. 9202S, CST); insulin receptor ß (cat. 3025S, CST); phospho-AKT (Ser473; cat. 9271S, CST) and total AKT (cat. 9272S, CST); phospho-ERK1/2 (Thr202/Tyr204; cat. 9101, CST) and total ERK (cat. 4695, CST) were diluted 1:1000 in 5% milk in TBS-T. Membranes were washed and incubated with secondary HRP-linked antirabbit antibody (1:7500 in 5% milk in TBS-T, CST) for 1 h, washed, and imaged using the Signal Fire ECL Reagent (CST) on the iBright 1500 Imaging System (Thermofisher). Protein density was quantified using ImageJ or the iBright Imaging System. […]

Akt (PKB) = test: Akt (Ser473) phosphorylation by Western blot in mHypoE-46 after insulin re-exposure; format: cell-based, mouse
Description: mHypoE-46 cells were serum starved in 5.5 mM glucose (LG) DMEM for 1 hour prior to treatment with vehicle (0.1% DMSO), 100 µM BAP or H20, […] 5-Aminoimidazole-4-carboxamide ribonucleotide (AICAR) or 0 mM glucose DMEM. Protein was harvested using 1× cell lysis buffer (Cell Signaling Technologies, Inc, CST) containing protease and phosphatase inhibitors. A total of 30 μg protein was separated on a 12% SDS-polyacrylamide gels and transferred onto PVDF membranes. […] Protein density was quantified using ImageJ or the iBright Imaging System.
In order to determine if insulin signaling and sensitivity may be affected by BAP, we assessed the activity and expression of the key signal transduction cascade activated by insulin, the PI3K/Akt pathway. mHypoE-46 neurons were co-treated with 100 μM insulin or vehicle control and 100 μM BAP and vehicle control for 24 hours. […] The phosphorylation level of Akt (PKB), the downstream kinase in the PI3K/Akt signal transduction pathway was assessed. […]

mHypoE-46 cell line = test: Gene expression by qRT-PCR in mHypoE-46 hypothalamic cell line; format: cell-based, mouse; set-up: insulin receptor subunit beta (Insrb) expression by qRT-PCR: dose or concentration left out as unconfirmed; conditions: for effect of PKA inhibition on BAP effect on Npy expression: n=2
Description: Hypothalamic neurons from embryonic and adult mice were previously immortalized to generate the clonal cell lines mHypoE-46, mHypoE-44, mHypoE-41, mHypoE-38, mHypoA-59, a FAC-sorted POMC/GFP mouse-derived cell line, mHypoA-POMC/GFP-2, and a mixed culture mHypoA-Bmal1-WT/F cell line (6, 13, 14). The mHypoE-46, mHypoE-44, and mHypoA-Bmal1-WT/F lines were cultured in DMEM containing 1000 mg/L glucose supplemented with 5% FBS and 1% pen/strep. The mHypoE-41, mHypoE-38, and mHypoA-59 cell lines were cultured in DMEM containing 4500 mg/L glucose supplemented with 2% FBS and 1% pen/strep. The mHypoA-POMC/GFP-2 line was cultured in DMEM containing 1000 mg/L glucose supplemented with 2% FBS and 1% pen/strep. All cells were maintained in 5% CO2 at 37° C. BAP was initially dissolved in DMSO solvent (vehicle control) to achieve 1000x the intended dose. The BAP solution was then diluted 1:1000 with the growth media used for the cell line. For co-treatment experiments, the vehicle control for ATP, UDP, and PKI was water, and for the H89 PKA inhibitor was DMSO. Neuropeptide gene expression levels were determined by qRT-PCR.
(§1) For cell culture experiments, total RNA was isolated using PureLink RNA isolation kit (Thermofisher Scientific, Burlington, ON, Canada) according to the manufacturer's instruction with on column DNase step (PureLink DNAse kit) or DNase I treatment to remove genomic DNA. For mouse experiments, total RNA was isolated using mirVana PARIS RNA and native protein isolation kit (Thermofisher Scientific). RNA quality and quantity were measured using Nanodrop 2000 and 500-1000 ng of complimentary DNA (cDNA) was synthesized with High Capacity cDNA Reverse Transcription kit (Applied biosystems, Thermofisher Scientific). Quantitative reverse transcription polymerase chain reaction (RT-qPCR) was performed with 12.5 ng of cDNA amplified with Platinum SYBR green qPCR SuperMix-UDG with ROX on an Applied Biosystems Prism 7900HT or PowerTrack Green Master Mix on an Applied Biosystems QuantStudio 5 and gene specific primers as per manufacturer's instructions (Table 1). Data was analyzed using […] and normalized to reference gene, either 60S ribosomal protein L7 (Rpl7) or Histone 3a (His).

[1] = test system: primary hypothalamic neurons; test: Feeding neuropeptide expression in primary hypothalamic culture (qRT-PCR); format: cell-based, CD-1 mice; conditions: 100 μM BAP, 16 hr, male- and female-derived cultures (both sexes)
Description: as §1
Because the BAP was being fed to the mice, it is also important to determine what are the direct effects of BAP on native hypothalamic neurons, since the results may be due to an indirect effect from the periphery. Hypothalamus were extracted from male and female CD-1 mice fed a normal chow diet, and primary hypothalamic neurons were cultured from individual mice. The neurons were treated with 100 µM of BAP for 16 hr to assess the effect of BAP on feeding-related neuropeptide expression.

[2] = 100 μM BAP, validation of RNAseq (FIG. 42A 4 hr, 42B 16 hr)

Compound: c1ccc(CNc2ncnc3nc[nH]c23)cc1 [BAP, N6-benzylaminopurine]
- p70-S6K (Thr389) phosphorylation (activity) (p70-S6K): significantly downregulated
- Akt phosphorylation at Ser473 upon 15 minutes of insulin exposure (Akt (PKB); 100 μM BAP 24 hours, neurons pre-treated with vehicle alone, re-exposed to 100 nM insulin): significantly increased
- induction of Akt phosphorylation by BAP under insulin-induced cellular insulin resistance (Akt (PKB); 100 μM BAP, neurons pre-treated with 100 μM insulin for 24 hours): not observed
- effect of PKA inhibition on BAP effect on Npy expression (mHypoE-46 cell line; 100 μM BAP + 1 μM H89, 16 hr): unable to block the effects of BAP on Npy expression
- effect of PKA inhibition on BAP effect on Npy expression (mHypoE-46 cell line; 100 μM BAP + 10 μM PKI, 16 hr): unable to block the effects of BAP on Npy expression
- Npy expression under co-treatment with palmitate (mHypoE-46 cell line; 100 μM BAP + 50 μM palmitate, 16 hr): rescues the palmitate-mediated increase in Npy expression
- Npy mRNA under co-treatment with ATP (mHypoE-46 cell line; 100 μM BAP + 100 μM ATP, 16 hr): overcome this induction and supress Npy mRNA levels
- Npy mRNA under co-treatment with UDP (mHypoE-46 cell line; 100 μM BAP + 100 μM UDP, 16 hr): still able to supress the gene
- Npy mRNA under co-treatment with UTP (mHypoE-46 cell line; 100 μM BAP + 100 μM UTP, 16 hr, n=2 preliminary): still able to supress the gene
- PI3K subunit (Pik3r1) gene expression (mHypoE-46 cell line; 100 μM BAP, 4 and 16 h): significantly increased
- Nadpk1 expression level (mHypoE-46 cell line; 100 μM BAP, 16 h): significantly decreased
- Nadpk2 expression level (mHypoE-46 cell line; 100 μM BAP, 16 h): not changed
- Agrp mRNA expression (mHypoE-46 cell line; 100 μM BAP, 16 hr): increased
- Npy mRNA expression (mHypoE-46 cell line; 100 μM BAP, 16 hr): supressed
- 4e-BP1 (Eif4ebp1) gene expression (mHypoE-46 cell line; [2]): increased
- ULK1 (Ulk1) gene expression (mHypoE-46 cell line; [2]): increased
- sestrin2 (Sesn2) gene expression (mHypoE-46 cell line; [2]): increased
- tuberous sclerosis complex 2 (Tsc2) gene expression (mHypoE-46 cell line; [2]): increased
- Npy mRNA expression, time course (mHypoE-46 cell line; 100 μM BAP, all time points tested: 2, 4, 8, 16, and 24 hr): significantly downregulate
- insulin receptor subunit beta (Insrb) expression by qRT-PCR (mHypoE-46 cell line; BAP, 16 h): increased
- BAP dose at which magnitude of Npy downregulation plateaus (mHypoE-46 cell line; dose curve, 16 hr): 250 µM
- lowest BAP concentration significantly decreasing Npy mRNA expression (mHypoE-46 cell line; dose curve, 16 hr): 50 µM
- Agrp expression [1]: no effects
- Npy expression [1]: no effects
- Pomc expression [1]: significantly increase

— patent US20260034135A1, “USE OF N6-BENZYLAMINOPURINE AS AN APPETITE SUPPRESSANT” (THE GOVERNING COUNCIL OF THE UNIVERSITY OF TORONTO, priority 2022, published 2026)
